Laboratory results from publication PMC3523469 (Investigational New Drugs, 2012).
Read-outs that look alike come from different tables or passages of the source.

Type: in vivo, Japanese patients

**Q.** With COc1cc2ncnc(Nc3ccc(F)c(Cl)c3)c2cc1NC(=O)/C=C/CN1CCCCC1 [dacomitinib, Dacomitinib] as the molecule, how does the “Nausea, number of patients with treatment-related AE” value (from here on “Nausea, number of patients”) (15 mg QD (n = 3), G3) read?
**A.** 0

**Q.** And the “Palmar–plantar erythrodysesthesia, number of patients with treatment-related AE” value (“Palmar–plantar erythrodysesthesia” below) (15 mg QD (n = 3), G3)?
**A.** 0

**Q.** What about the “Paronychia, number of patients with treatment-related AE” value (from here on “Paronychia, number of patients”) (15 mg QD (n = 3), G3) of the same molecule?
**A.** 0

**Q.** What about the “Proteinuria, number of patients with treatment-related AE” value (“Proteinuria, number of patients” below) (15 mg QD (n = 3), G3) of the same molecule?
**A.** 0

**Q.** And the “Rash, number of patients with treatment-related AE” value (“Rash, number of patients” below) (15 mg QD (n = 3), G3)?
**A.** 0

**Q.** What about the “Skin fissures, number of patients with treatment-related AE” value (“Skin fissures, number of patients” for short) (15 mg QD (n = 3), G3) of the same molecule?
**A.** 0

**Q.** And the “Stomatitis, number of patients with treatment-related AE” value (shortened to “Stomatitis, number of patients”) (15 mg QD (n = 3), G3)?
**A.** 0

**Q.** And the “Weight decreased, number of patients with treatment-related AE” value (“Weight decreased, number of patients” for short) (15 mg QD (n = 3), G3)?
**A.** 0

**Q.** And the “Alanine aminotransferase increased, number of patients with treatment-related AE” value (from here on “Alanine aminotransferase increased”) (30 mg QD (n = 3), All)?
**A.** 0

**Q.** And the “Aspartate aminotransferase increased, number of patients with treatment-related AE” value (“Aspartate aminotransferase increased” below) (30 mg QD (n = 3), All)?
**A.** 0

**Q.** And the “Blood bilirubin increased, number of patients with treatment-related AE” value (“Blood bilirubin increased, number” for short) (30 mg QD (n = 3), All)?
**A.** 0

**Q.** And the “Cheilitis, number of patients with treatment-related AE” value (shortened to “Cheilitis, number of patients”) (30 mg QD (n = 3), All)?
**A.** 1

**Q.** And the “Conjunctivitis, number of patients with treatment-related AE” value (“Conjunctivitis, number of patients” below) (30 mg QD (n = 3), All)?
**A.** 1

**Q.** What about the “Decreased appetite, number of patients with treatment-related AE” value (shortened to “Decreased appetite, number of patients”) (30 mg QD (n = 3), All) of the same molecule?
**A.** 1

**Q.** And the “Diarrhea, number of patients with treatment-related AE” value (“Diarrhea, number of patients” for short) (30 mg QD (n = 3), All)?
**A.** 3

**Q.** What about the “Dry skin, number of patients with treatment-related AE” value (from here on “Dry skin, number of patients”) (30 mg QD (n = 3), All) of the same molecule?
**A.** 1

**Q.** And the “ECG QT prolonged, number of patients with treatment-related AE” value (“ECG QT prolonged, number of patients” for short) (30 mg QD (n = 3), All)?
**A.** 0

**Q.** And the “Edema, number of patients with treatment-related AE” value (“Edema, number of patients” for short) (30 mg QD (n = 3), All)?
**A.** 0

**Q.** And the “Fatigue, number of patients with treatment-related AE” value (from here on “Fatigue, number of patients”) (30 mg QD (n = 3), All)?
**A.** 1

**Q.** What about the “Hematuria, number of patients with treatment-related AE” value (“Hematuria, number of patients” below) (30 mg QD (n = 3), All) of the same molecule?
**A.** 0

**Q.** And the “Hypertrichosis, number of patients with treatment-related AE” value (“Hypertrichosis, number of patients” for short) (30 mg QD (n = 3), All)?
**A.** 0

**Q.** What about the “Leukopenia, number of patients with treatment-related AE” value (shortened to “Leukopenia, number of patients”) (30 mg QD (n = 3), All) of the same molecule?
**A.** 0

**Q.** What about the “Nausea, number of patients” value (30 mg QD (n = 3), All) of the same molecule?
**A.** 1

**Q.** What about the “Palmar–plantar erythrodysesthesia” value (30 mg QD (n = 3), All) of the same molecule?
**A.** 2

**Q.** What about the “Paronychia, number of patients” value (30 mg QD (n = 3), All) of the same molecule?
**A.** 2

**Q.** What about the “Proteinuria, number of patients” value (30 mg QD (n = 3), All) of the same molecule?
**A.** 0

**Q.** And the “Rash, number of patients” value (30 mg QD (n = 3), All)?
**A.** 3

**Q.** And the “Skin fissures, number of patients” value (30 mg QD (n = 3), All)?
**A.** 0

**Q.** And the “Stomatitis, number of patients” value (30 mg QD (n = 3), All)?
**A.** 2

**Q.** And the “Weight decreased, number of patients” value (30 mg QD (n = 3), All)?
**A.** 1

**Q.** What about the “Alanine aminotransferase increased” value (30 mg QD (n = 3), G1) of the same molecule?
**A.** 0

**Q.** And the “Aspartate aminotransferase increased” value (30 mg QD (n = 3), G1)?
**A.** 0

**Q.** And the “Blood bilirubin increased, number” value (30 mg QD (n = 3), G1)?
**A.** 0

**Q.** What about the “Cheilitis, number of patients” value (30 mg QD (n = 3), G1) of the same molecule?
**A.** 1

**Q.** And the “Conjunctivitis, number of patients” value (30 mg QD (n = 3), G1)?
**A.** 1

**Q.** And the “Decreased appetite, number of patients” value (30 mg QD (n = 3), G1)?
**A.** 0

**Q.** And the “Diarrhea, number of patients” value (30 mg QD (n = 3), G1)?
**A.** 3

**Q.** What about the “Dry skin, number of patients” value (30 mg QD (n = 3), G1) of the same molecule?
**A.** 0

**Q.** And the “ECG QT prolonged, number of patients” value (30 mg QD (n = 3), G1)?
**A.** 0

**Q.** And the “Edema, number of patients” value (30 mg QD (n = 3), G1)?
**A.** 0

**Q.** And the “Fatigue, number of patients” value (30 mg QD (n = 3), G1)?
**A.** 0

**Q.** What about the “Hematuria, number of patients” value (30 mg QD (n = 3), G1) of the same molecule?
**A.** 0

**Q.** What about the “Hypertrichosis, number of patients” value (30 mg QD (n = 3), G1) of the same molecule?
**A.** 0

**Q.** And the “Leukopenia, number of patients” value (30 mg QD (n = 3), G1)?
**A.** 0

**Q.** And the “Nausea, number of patients” value (30 mg QD (n = 3), G1)?
**A.** 1

**Q.** What about the “Palmar–plantar erythrodysesthesia” value (30 mg QD (n = 3), G1) of the same molecule?
**A.** 0

**Q.** And the “Paronychia, number of patients” value (30 mg QD (n = 3), G1)?
**A.** 0

**Q.** What about the “Proteinuria, number of patients” value (30 mg QD (n = 3), G1) of the same molecule?
**A.** 0

**Q.** What about the “Rash, number of patients” value (30 mg QD (n = 3), G1) of the same molecule?
**A.** 1

**Q.** What about the “Skin fissures, number of patients” value (30 mg QD (n = 3), G1) of the same molecule?
**A.** 0

**Q.** And the “Stomatitis, number of patients” value (30 mg QD (n = 3), G1)?
**A.** 1

**Q.** What about the “Weight decreased, number of patients” value (30 mg QD (n = 3), G1) of the same molecule?
**A.** 0

**Q.** What about the “Alanine aminotransferase increased” value (30 mg QD (n = 3), G2) of the same molecule?
**A.** 0

**Q.** And the “Aspartate aminotransferase increased” value (30 mg QD (n = 3), G2)?
**A.** 0

**Q.** And the “Blood bilirubin increased, number” value (30 mg QD (n = 3), G2)?
**A.** 0

**Q.** What about the “Cheilitis, number of patients” value (30 mg QD (n = 3), G2) of the same molecule?
**A.** 0

**Q.** What about the “Conjunctivitis, number of patients” value (30 mg QD (n = 3), G2) of the same molecule?
**A.** 0

**Q.** What about the “Decreased appetite, number of patients” value (30 mg QD (n = 3), G2) of the same molecule?
**A.** 1

**Q.** What about the “Diarrhea, number of patients” value (30 mg QD (n = 3), G2) of the same molecule?
**A.** 0

**Q.** What about the “Dry skin, number of patients” value (30 mg QD (n = 3), G2) of the same molecule?
**A.** 1

**Q.** What about the “ECG QT prolonged, number of patients” value (30 mg QD (n = 3), G2) of the same molecule?
**A.** 0

**Q.** What about the “Edema, number of patients” value (30 mg QD (n = 3), G2) of the same molecule?
**A.** 0

**Q.** What about the “Fatigue, number of patients” value (30 mg QD (n = 3), G2) of the same molecule?
**A.** 1

**Q.** What about the “Hematuria, number of patients” value (30 mg QD (n = 3), G2) of the same molecule?
**A.** 0

**Q.** And the “Hypertrichosis, number of patients” value (30 mg QD (n = 3), G2)?
**A.** 0

**Q.** What about the “Leukopenia, number of patients” value (30 mg QD (n = 3), G2) of the same molecule?
**A.** 0

**Q.** And the “Nausea, number of patients” value (30 mg QD (n = 3), G2)?
**A.** 0

**Q.** What about the “Palmar–plantar erythrodysesthesia” value (30 mg QD (n = 3), G2) of the same molecule?
**A.** 2

**Q.** And the “Paronychia, number of patients” value (30 mg QD (n = 3), G2)?
**A.** 2

**Q.** What about the “Proteinuria, number of patients” value (30 mg QD (n = 3), G2) of the same molecule?
**A.** 0

**Q.** And the “Rash, number of patients” value (30 mg QD (n = 3), G2)?
**A.** 2

**Q.** What about the “Skin fissures, number of patients” value (30 mg QD (n = 3), G2) of the same molecule?
**A.** 0

**Q.** What about the “Stomatitis, number of patients” value (30 mg QD (n = 3), G2) of the same molecule?
**A.** 1

**Q.** And the “Weight decreased, number of patients” value (30 mg QD (n = 3), G2)?
**A.** 1

**Q.** And the “Alanine aminotransferase increased” value (30 mg QD (n = 3), G3)?
**A.** 0

**Q.** And the “Aspartate aminotransferase increased” value (30 mg QD (n = 3), G3)?
**A.** 0

**Q.** And the “Blood bilirubin increased, number” value (30 mg QD (n = 3), G3)?
**A.** 0

**Q.** And the “Cheilitis, number of patients” value (30 mg QD (n = 3), G3)?
**A.** 0

**Q.** And the “Conjunctivitis, number of patients” value (30 mg QD (n = 3), G3)?
**A.** 0

**Q.** And the “Decreased appetite, number of patients” value (30 mg QD (n = 3), G3)?
**A.** 0

**Q.** And the “Diarrhea, number of patients” value (30 mg QD (n = 3), G3)?
**A.** 0
